From patent US5248807A, “Triterpene derivatives” (Shionogi & Co., Ltd., priority 1991, dated 1993)

Assays:
[1] = molecular target: T1, endothelin-receptor (membrane fraction of the media from porcine aorta) (Sus scrofa, UniProt Q29010); assay: Inhibitory effect on the binding of 125I-endothelin-1 to the receptor, media of porcine aorta membrane; settings: 25 pM 125I-endothelin-1, 37° C., 1 hour, read-out: IC50 (concentration to inhibit 50% of the specific binding of 125I-endothelin-1)
T1 construct: Membrane fractions were prepared from porcine and rat hearts, rat thoracic aorta, and the media of porcine aorta; from tissue; host or cells: media of porcine aorta, membrane fraction
T1 sequence (Q29010 21-427): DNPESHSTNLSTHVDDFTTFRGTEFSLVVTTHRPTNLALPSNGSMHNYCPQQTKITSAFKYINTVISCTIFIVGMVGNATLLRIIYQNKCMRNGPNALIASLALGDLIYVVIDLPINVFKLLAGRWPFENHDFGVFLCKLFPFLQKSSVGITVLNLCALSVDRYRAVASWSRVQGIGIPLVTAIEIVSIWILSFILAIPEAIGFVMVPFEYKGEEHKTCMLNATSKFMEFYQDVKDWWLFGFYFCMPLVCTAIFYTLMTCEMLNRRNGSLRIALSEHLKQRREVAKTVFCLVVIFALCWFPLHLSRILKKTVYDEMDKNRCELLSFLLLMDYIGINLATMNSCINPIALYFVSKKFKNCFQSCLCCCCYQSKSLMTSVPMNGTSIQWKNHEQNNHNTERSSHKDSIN
Method: (§1) Inhibitory Effect on the Binding of ^125 I-Endothelin-1 to the Receptor
(§2) Membrane fractions were prepared from porcine and rat hearts, rat thoracic aorta, and the media of porcine aorta. Each membrane fraction was incubated, in the presence or absence of the present compound 1 with 25 pM of ^125 I-endothelin-1 at 37° C. for 1 hour. After the reaction was completed, ^125 I-endothelin-1 bound to each membrane fraction was separated by rapid filtration through glass fiber filters and its radioactivity was determined with a gamma-counter. The specific binding was calculated by subtracting, from the total binding, the non-specific binding which was determined in the presence of 10^-7 M of non-radioactive endothelin-1. The concentration of the present compound 1 to inhibit 50% of the specific binding (i.e., IC50) is shown at Table 1.

[2] = molecular target: T2, endothelin-receptor (membrane fraction of porcine heart) (Sus scrofa, UniProt Q29010); assay: Inhibitory effect on the binding of 125I-endothelin-1 to the receptor, porcine heart membrane; settings: 25 pM 125I-endothelin-1, 37° C., 1 hour, read-out: IC50 (concentration to inhibit 50% of the specific binding of 125I-endothelin-1)
T2 construct: Membrane fractions were prepared from porcine and rat hearts; from tissue; host or cells: porcine heart, membrane fraction
T2 sequence (Q29010 21-427): T1 sequence (Q29010 21-427)
Method: as §1, §2

[3] = molecular target: T3, endothelin-receptor (membrane fraction of rat aorta) (Rattus norvegicus, UniProt P26684); assay: Inhibitory effect on the binding of 125I-endothelin-1 to the receptor, rat aorta membrane; settings: 25 pM 125I-endothelin-1, 37° C., 1 hour, read-out: IC50 (concentration to inhibit 50% of the specific binding of 125I-endothelin-1)
T3 construct: Membrane fractions were prepared from porcine and rat hearts, rat thoracic aorta, and the media of porcine aorta; from tissue; host or cells: rat thoracic aorta, membrane fraction
T3 sequence (P26684 21-426): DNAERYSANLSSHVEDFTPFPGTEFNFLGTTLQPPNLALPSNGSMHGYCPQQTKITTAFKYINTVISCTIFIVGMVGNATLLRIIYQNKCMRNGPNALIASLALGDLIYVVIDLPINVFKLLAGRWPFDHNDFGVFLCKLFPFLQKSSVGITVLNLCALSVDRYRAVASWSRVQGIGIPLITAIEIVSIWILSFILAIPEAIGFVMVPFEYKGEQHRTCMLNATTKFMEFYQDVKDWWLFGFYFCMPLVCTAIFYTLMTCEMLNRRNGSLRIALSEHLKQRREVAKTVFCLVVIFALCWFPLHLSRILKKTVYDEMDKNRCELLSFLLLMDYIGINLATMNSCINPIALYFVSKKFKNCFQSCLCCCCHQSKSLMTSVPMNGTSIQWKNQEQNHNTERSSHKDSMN
Method: as §1, §2

[4] = tested on: endothelin-1-induced increase in cytosolic calcium ion concentration (rat aortic smooth muscle A7r5 cells); assay: Inhibition of the endothelin-1-induced increase in cytosolic calcium ion concentration in A7r5 cells; assay type: cell-based; settings: fura-2, 1 min pre-incubation, 10^-8 M endothelin-1, read-out: IC50 (concentration to inhibit the endothelin-1-induced increase in cytosolic calcium ion by 50%)
Method: Inhibition of the endothelin-1-induced increase in cytosolic calcium ion concentration
To a cuvette was put the suspension of rat aortic smooth muscle A7r5 cells, obtained from Dainippon Pharmaceutical Co., Ltd., loaded with 2 μM of fura-2 (Dojindo), then the change in fluorescence intensity was determined with a calcium analizer (CAF100, Nippon Bunkou Co.). In the determination,the exciting was performed at 340 nm and 380 nm and the recording at 510 nm. Calculation for the concentration of cytosolic calcium ion was performed according to the method of Grynkiewicz et al. (J.Biol.Chem., 260, P. 3440-3450, 1985). The experiment was performed as follows: at first, the present compounds were added to the cell suspension in the cuvette and the mixture was incubated for 1 min. Then, 10^-8 M of endothelin-1 was added thereto and the change in fluorescence intensity was determined. The concentration of the present compounds to inhibit the endothelin-1-induced increase in cytosolic calcium ion by 50%, (i.e., IC50) is shown at Table 2.

| SMILES | IC50 [4] | other results |
| --- | --- | --- |
| CC(=O)Oc1cccc(C=CC(=O)OCC23CCC4(C(=O)O)CCC(C)(C)CC4C2=CCC2C4(C)CCC(=O)C(C)(C)C4CCC23C)c1 (stereo not drawn) [Compound 4] | 34 nM | – |
| CC(=O)Oc1cc(C=CC(=O)OCC23CCC4(C(=O)O)CCC(C)(C)CC4C2=CCC2C4(C)CCC(=O)C(C)(C)C4CCC23C)cc(OC(C)=O)c1 (stereo not drawn) [Compound 8] | 260 nM | – |
| CC(=O)Oc1ccc(C=CC(=O)OCC23CCC4(C(=O)O)CCC(C)(C)CC4C2=CCC2C4(C)CCC(=O)C(C)(C)C4CCC23C)cc1 (stereo not drawn) [Compound 10] | 180 nM | – |
| CC1(C)CCC2(C(=O)O)CCC3(COC(=O)C=Cc4ccc(O)cc4)C(=CCC4C5(C)CCC(=O)C(C)(C)C5CCC43C)C2C1 (stereo not drawn) [Compound 11] | 27 nM | – |
| CC1(C)CCC2(C(=O)O)CCC3(COC(=O)C=Cc4ccccc4O)C(=CCC4C5(C)CCC(=O)C(C)(C)C5CCC43C)C2C1 (stereo not drawn) [Compound 12] | 27 nM | – |
| CC1(C)CCC2(C(=O)O)CCC3(COC(=O)C=Cc4ccccn4)C(=CCC4C5(C)CCC(=O)C(C)(C)C5CCC43C)C2C1 (stereo not drawn) [Compound 13] | 25 nM | – |

Now those with a lower IC50 [4], led by results:

| IC50 [4] | SMILES | other results |
| --- | --- | --- |
| 11 nM | CC1(C)CCC2(C(=O)O)CCC3(COC(=O)C=Cc4ccc(O)c(O)c4)C(=CCC4C5(C)CCC(=O)C(C)(C)C5CCC43C)C2C1 (stereo not drawn) [Compound 1] | IC50 [1]: 32 nM; IC50 [2]: 83 nM; IC50 [3]: 56 nM |
| 18 nM | CC1(C)CCC2(C(=O)O)CCC3(COC(=O)C=Cc4ccccc4)C(=CCC4C5(C)CCC(=O)C(C)(C)C5CCC43C)C2C1 (stereo not drawn) [Compound 3] | – |
| 11 nM | CC1(C)CCC2(C(=O)O)CCC3(COC(=O)C=Cc4cccc(O)c4)C(=CCC4C5(C)CCC(=O)C(C)(C)C5CCC43C)C2C1 (stereo not drawn) [Compound 5] | – |
| 14 nM | CC1(C)CCC2(C(=O)O)CCC3(COC(=O)C=Cc4cccc(OS(=O)(=O)O)c4)C(=CCC4C5(C)CCC(=O)C(C)(C)C5CCC43C)C2C1 (stereo not drawn) [Compound 6] | – |
| 9 nM | CC1(C)CCC2(C(=O)O)CCC3(COC(=O)C=Cc4cccc(OC(=O)CCC(=O)O)c4)C(=CCC4C5(C)CCC(=O)C(C)(C)C5CCC43C)C2C1 (stereo not drawn) [Compound 7] | – |
| 4.5 nM | CC1(C)CCC2(C(=O)O)CCC3(COC(=O)C=Cc4cc(O)cc(O)c4)C(=CCC4C5(C)CCC(=O)C(C)(C)C5CCC43C)C2C1 (stereo not drawn) [Compound 9] | – |
